According to ChEMBL document CHEMBL3351886:
Active and inactive are the calls of the source. The calls are words filed in the database; no cut-off is given here.

Tests used:
Format in all cases: cell-based
NG108-15 [1] = assay: Agonist activity at AT2 receptor in rat and mouse hybridoma NG108-15 cells assessed as induction of neurite outgrowth at 100 nM after 3 days by phase contrast microscopy
NG108-15 [2] = assay: Agonist activity at AT2 receptor in rat and mouse hybridoma NG108-15 cells assessed as induction of neurite outgrowth at 100 nM after 3 days in presence of 1 uM AT2 receptor antagonist PD 123,319 by phase contrast microscopy
NG108-15 [3] = assay: Antagonist activity at AT2 receptor in rat and mouse hybridoma NG108-15 cells assessed as reduction in angiotensin-2-induced neurite outgrowth at 100 nM after 3 days by phase contrast microscopy

| SMILES | Activity (NG108-15 [1]) | Activity (NG108-15 [2]) | inhibition (NG108-15 [3]) |
| --- | --- | --- | --- |
| CNCC(=O)N[C@@H](CCCNC(=N)N)C(=O)N[C@H](C(=O)N[C@@H](Cc1ccc(O)cc1)C(=O)N[C@H](C(=O)N[C@@H](Cc1cnc[nH]1)C(=O)N1CCC[C@H]1C(=O)N[C@@H](C)C(=O)O)C(C)C)C(C)C | Active | inactive | inactive |
| CC[C@H](C)[C@H](NC(=O)[C@@H]1CCCN1C(=O)[C@H](Cc1c[nH]cn1)NC(=O)[C@@H](NC(=O)[C@H](Cc1ccc(O)cc1)NC(=O)[C@@H](NC(=O)[C@H](CCCN=C(N)N)NC(=O)CNC)C(C)C)[C@@H](C)CC)C(=O)O | Active | inactive | inactive |
| CC[C@H](C)[C@H](NC(=O)[C@H](Cc1ccc(O)cc1)NC(=O)[C@@H](NC(=O)[C@H](CCCNC(=N)N)NC(=O)[C@@H](N)CC(=O)O)C(C)C)C(=O)N[C@@H](Cc1cnc[nH]1)C(=O)N1CCC[C@H]1C(=O)N[C@@H](Cc1ccccc1)C(=O)O | Active | inactive |  |
